This data set deals with T1, OATP2B1 (Homo sapiens, UniProt O94956).
T1 construct: expressed in transfected cells
T1 sequence (O94956 1-709): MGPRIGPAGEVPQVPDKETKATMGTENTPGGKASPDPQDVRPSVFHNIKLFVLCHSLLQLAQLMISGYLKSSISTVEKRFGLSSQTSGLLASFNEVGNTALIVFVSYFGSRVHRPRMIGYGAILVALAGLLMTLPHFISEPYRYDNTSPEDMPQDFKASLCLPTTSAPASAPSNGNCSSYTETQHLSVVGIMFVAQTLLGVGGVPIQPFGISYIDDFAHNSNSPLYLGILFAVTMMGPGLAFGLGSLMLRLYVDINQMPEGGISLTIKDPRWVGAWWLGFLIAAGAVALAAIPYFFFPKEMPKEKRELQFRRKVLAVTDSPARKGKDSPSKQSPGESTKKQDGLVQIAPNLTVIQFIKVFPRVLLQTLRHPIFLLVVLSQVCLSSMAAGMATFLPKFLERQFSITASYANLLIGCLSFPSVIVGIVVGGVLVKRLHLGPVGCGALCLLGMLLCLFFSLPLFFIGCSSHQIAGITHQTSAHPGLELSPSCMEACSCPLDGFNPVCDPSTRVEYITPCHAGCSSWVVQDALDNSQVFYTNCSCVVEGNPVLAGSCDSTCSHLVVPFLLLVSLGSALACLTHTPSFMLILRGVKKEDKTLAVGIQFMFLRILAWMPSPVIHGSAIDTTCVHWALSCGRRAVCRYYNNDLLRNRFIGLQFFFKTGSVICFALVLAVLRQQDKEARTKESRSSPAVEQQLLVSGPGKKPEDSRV
In words: Remdesivir uptake into HEK cells stably expressing OATP2B1 vs vector control. It counts as in vitro ADME. Particulars: 5 µM remdesivir, 10 min, transporter-expressing vs control HEK cells. From the text:
Generation, cultivation and characterization of human embryonic kidney (HEK) cells stably expressing OATP1B1 refseq (=OATP1B1*1a), OATP1B1*1b, OATP1B1*5 and OATP1B1*15 [18], OATP1B3 [19], OATP2B1 [13] and OCT1 [20] have been described previously. OATP1B1 cells were cultivated in minimal essential medium (Life Technologies, Paisley, UK) and OATP1B3, OATP2B1 and OCT1 cells were cultivated in Dulbecco’s modified Eagle medium (Sigma, Darmstadt, Germany). Cultivation media were supplemented with 10% fetal calf serum, 100 U/mL penicillin and 100 µg/mL streptomycin. Cells were grown at 37 °C and 5% CO2. Functionality of the cells was confirmed by measuring uptake of prototypic substrates (see Section 2.3 and supplementary material).
Uptake assays were conducted at 37 °C according to previously described methods. For this, cells were seeded in 24-well plates (320,000 cells/well) and cultured for 2 days. Cells were then incubated for a further 24 h in culture medium with 5 mM butyrate (OATP1B3, OATP2B1, OCT1) or 10 mM butyrate (OATP1B1) to increase protein levels of recombinant transporters. […]
Remdesivir was determined by UHPLC-MS-MS analysis on an Agilent 1290 infinity UHPLC system coupled to an Agilent 6495B triple quadrupole mass spectrometer (Agilent, Waldbronn, Germany) similar to a recently published method. […]

Here are results for one compound from article PMC7999182, “Interaction of Remdesivir with Clinically Relevant Hepatic Drug Uptake Transporters” (Pharmaceutics, 2021).

Structures are written as SMILES.

For `CCC(CC)COC(=O)[C@H](C)N[P@](=O)(OC[C@H]1O[C@@](C#N)(c2ccc3c(N)ncnn23)[C@H](O)[C@@H]1O)Oc1ccccc1` [Remdesivir], the Remdesivir uptake ratio worked out at 1.4.
